# From patent publication US20200253979A1, “THERAPEUTIC METHODS RELATING TO HSP90 INHIBITORS” (AI Therapeutics, Inc., priority 2017, published 2020)
# Tested on: phospho-ERK (pERK) in MOLM-13 cells
# Assay: Phospho-ERK level
# Format: cell-based, human
# Conditions: MPC-0767 800 nM, ATO 625 nM or combination, 24 hours
# From the text: We next explored whether the synergistic activity of MPC-0767 and ATO was due to a more complete abrogation of FLT3-ITD oncogenic signaling. […] After this time cells were harvested for the assessment of cell surface FLT3 expression by flow cytometry. To additionally measure the effects of abrogating FLT3, we assessed phospho-ERK (pERK) and phospho-S6 (pS6), as these are two known downstream effectors.
compound,measurement,value
C[C@H](N)C(=O)O[C@@H](C)C(=O)N1CCC(CCn2c(Sc3cc4c(cc3Br)OCO4)nc3c(N)ncnc32)CC1 [MPC-0767],pERK level,mildly reduced
